Test systems include CAKI-1 renal; EKVX NSCLC; K-562 leukemia; KM12 colon; MDA-MB-231 breast; PC-3 prostate; SF-295 CNS; SK-OV-3 ovarian; NCI/ADR-RES ovarian; UO-31 renal.
Common to all, as to assay: inhibition of tumour cell growth, NCI panel, 48 h

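Interpolation was linear, between the two tested concentrations surrounding the appropriate level; five concentrations were tested over 48 hours in 96-well plates. Here, GI50 denotes the concentration required for 50% inhibition of growth. TGI denotes the concentration required for complete inhibition of growth.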 Some results are limits rather than exact numbers.

In PubChem BioAssay (NCI) one finds GI50 and TGI data, which are given here for twelve compounds.

Turning to `O=C(Nc1ccc(Cl)c(C(F)(F)F)c1)c1ccc(NC2=C(Cl)C(=O)N(Cc3ccccc3)C2=O)cc1`, the GI50 in the assay with CAKI-1 renal is 19.4 µM; with EKVX NSCLC, 11.5 µM; in the assay with K-562 leukemia, 3.49 µM; in the assay on KM12 colon it was 20.3 µM; with MDA-MB-231 breast, 17.1 µM; in the assay with PC-3 prostate, 3.39 µM. Further, the GI50 is 19.7 µM with SF-295 CNS and 26.9 µM with SK-OV-3 ovarian. In addition, the TGI in the assay with CAKI-1 renal was 38.6 µM; in the assay on EKVX NSCLC it was 34.5 µM; in the assay with K-562 leukemia, 7.24 µM; in the assay on KM12 colon, 47.3 µM; in the assay with MDA-MB-231 breast it was 31 µM; in the assay on PC-3 prostate, 11.8 µM. Moreover, the TGI is 52.8 µM in the assay with SF-295 CNS and 60.5 µM with SK-OV-3 ovarian.

In the case of `Clc1nc(Cl)nc(Nc2cccc3ccccc23)n1`, the GI50 was more than 100 µM in the assay with CAKI-1 renal; 40.8 µM with K-562 leukemia; 93.7 µM with KM12 colon; 63.9 µM in the assay with MDA-MB-231 breast; more than 100 µM with NCI/ADR-RES ovarian; 84.2 µM with PC-3 prostate. In addition, the GI50 in the assay on SF-295 CNS was 64 µM; with SK-OV-3 ovarian, more than 100 µM; in the assay on UO-31 renal, 26.5 µM. Further, the TGI in the assay on CAKI-1 renal, with K-562 leukemia, with KM12 colon, in the assay with MDA-MB-231 breast, in the assay with NCI/ADR-RES ovarian and with PC-3 prostate was more than 100 µM in each case. The TGI in the assay with SF-295 CNS, in the assay on SK-OV-3 ovarian and in the assay on UO-31 renal was more than 100 µM in each case.

Take `Cc1ccc(S(=O)OCc2c(C)c(C)c(COS(=O)c3ccc(C)cc3)c(C)c2C)cc1` (centres undefined): the TGI with CAKI-1 renal, with EKVX NSCLC, with K-562 leukemia, in the assay on KM12 colon, in the assay with SF-295 CNS and in the assay on SK-OV-3 ovarian was more than 100 µM throughout. In the assay with UO-31 renal, the TGI was more than 100 µM.

For the compound `CCOC(=O)c1ccc(N=Nc2cc(C(=O)OCC)ccc2O)cc1`, the TGI in the assay on CAKI-1 renal was more than 100 µM; with EKVX NSCLC, 41.8 µM; in the assay on K-562 leukemia it was more than 100 µM; in the assay on SK-OV-3 ovarian, more than 100 µM; in the assay on UO-31 renal, more than 100 µM.

Consider `CN(C)CCC(=O)C(=Cc1ccc(O)cc1)C(=O)CCN(C)C`, for which the GI50 in the assay on CAKI-1 renal was 16.4 µM; with EKVX NSCLC, more than 100 µM; with KM12 colon, 41.9 µM; in the assay on MDA-MB-231 breast it was more than 100 µM; in the assay on NCI/ADR-RES ovarian, more than 100 µM; in the assay on SF-295 CNS it was more than 100 µM. Besides, the results for the GI50 with SK-OV-3 ovarian and with UO-31 renal were more than 100 µM and 25.2 µM, respectively. Also, the TGI was 32.5 µM in the assay on CAKI-1 renal; more than 100 µM with EKVX NSCLC; more than 100 µM in the assay with KM12 colon; more than 100 µM with MDA-MB-231 breast; more than 100 µM in the assay with NCI/ADR-RES ovarian; more than 100 µM with SF-295 CNS. Also, the TGI with SK-OV-3 ovarian is more than 100 µM; in the assay with UO-31 renal, 69.8 µM.

In the case of `CC(=O)N1CCC(=O)/C(=C/c2ccccc2)C1`, the TGI is 30 µM in the assay on CAKI-1 renal; more than 100 µM with K-562 leukemia; 51.6 µM in the assay with KM12 colon; more than 100 µM in the assay on SF-295 CNS; more than 100 µM in the assay on SK-OV-3 ovarian; more than 100 µM with UO-31 renal.

Regarding `O=C(Nc1cc(C(F)(F)F)ccc1Cl)c1cccc(NC2=C(Cl)C(=O)N(Cc3ccccc3)C2=O)c1`, the GI50 was 89.3 µM with CAKI-1 renal; 53 µM in the assay with EKVX NSCLC; 4.23 µM in the assay on K-562 leukemia; 52.9 µM in the assay on KM12 colon; 32.7 µM in the assay on MDA-MB-231 breast; 14.1 µM with PC-3 prostate. Also, the GI50 was 29.1 µM in the assay on SF-295 CNS, more than 100 µM with SK-OV-3 ovarian and 0.7 µM with UO-31 renal. For the same compound, the TGI in the assay on CAKI-1 renal, with EKVX NSCLC, in the assay with K-562 leukemia, with KM12 colon, in the assay with MDA-MB-231 breast and in the assay with PC-3 prostate was more than 100 µM each time. The TGI with SF-295 CNS was more than 100 µM; with SK-OV-3 ovarian it was more than 100 µM; in the assay on UO-31 renal it was 58.2 µM.

Regarding `CCOC(=O)c1c(-c2ccc(OC)cc2)c(C#N)c2c(C#N)c(N)nn2c1N`, the GI50 in the assay with CAKI-1 renal is 2.95 µM; in the assay with EKVX NSCLC, 4.8 µM; in the assay with K-562 leukemia, 1.18 µM; with KM12 colon, 4.01 µM; in the assay on MDA-MB-231 breast, 3.63 µM; in the assay on NCI/ADR-RES ovarian, 3.57 µM. Besides, the values for the GI50 in the assay with SF-295 CNS, in the assay on SK-OV-3 ovarian and in the assay on UO-31 renal were 2.98 µM, 3.49 µM and 3.49 µM, respectively. The TGI was more than 100 µM in the assay with CAKI-1 renal; more than 100 µM in the assay with EKVX NSCLC; more than 100 µM in the assay on K-562 leukemia; more than 100 µM in the assay on KM12 colon; 23.2 µM in the assay with MDA-MB-231 breast; more than 100 µM with NCI/ADR-RES ovarian. Moreover, the TGI in the assay with SF-295 CNS came to 32.9 µM; in the assay on SK-OV-3 ovarian, 19.1 µM; in the assay on UO-31 renal it was 90 µM.

`C[Si](C)(C)/C(I)=C/CO`: the TGI with EKVX NSCLC is 71.7 µM; with K-562 leukemia, 41.4 µM; in the assay on KM12 colon, 60.8 µM; in the assay on SF-295 CNS, 58.3 µM; in the assay on SK-OV-3 ovarian, more than 100 µM; in the assay with UO-31 renal, 71.5 µM.

As to `Cn1cc(-c2csc(-c3c[nH]c4ccc(Br)cc34)n2)c2cnccc21`, the GI50 is 2.5 µM with EKVX NSCLC; 0.345 µM in the assay on K-562 leukemia; 2.33 µM in the assay with KM12 colon; 2.34 µM with MDA-MB-231 breast; 2.02 µM with PC-3 prostate. Further, the TGI with EKVX NSCLC turned out to be 6.37 µM; with K-562 leukemia, 1.28 µM; with KM12 colon, 5.48 µM; with MDA-MB-231 breast, 5.55 µM; with PC-3 prostate it was 4.15 µM.

Consider `C=CCN1CCC23c4c5ccc(O)c4OC2C(=NN=C2CCC4(O)C6Cc7ccc(O)c8c7C4(CCN6CC=C)C2O8)CCC3(O)C1C5` (centres undefined), for which the TGI is more than 100 µM in the assay on CAKI-1 renal; more than 100 µM in the assay on EKVX NSCLC; 78.7 µM with K-562 leukemia; 42.4 µM in the assay with KM12 colon; 40.9 µM in the assay with SF-295 CNS; more than 100 µM in the assay with SK-OV-3 ovarian. Also, the TGI in the assay on UO-31 renal was more than 100 µM.

`COC(=O)C1=C(C(=O)OC)C2=S(SC3=C2CCCC3)S1` (centres undefined): the TGI was more than 100 µM with CAKI-1 renal; more than 100 µM in the assay with EKVX NSCLC; 25.8 µM in the assay on K-562 leukemia; 97.6 µM in the assay on KM12 colon; more than 100 µM with SF-295 CNS; more than 100 µM with SK-OV-3 ovarian. The compound also displayed a TGI in the assay with UO-31 renal of more than 100 µM.
